Holding throughout (assay type): cell-based
In one assay the target is T1, M4 muscarinic receptor (Homo sapiens, UniProt P08173).
T1 construct: expressed in transfected cells; host or cells: CHO (M4-CHO)
T1 sequence (P08173 1-479): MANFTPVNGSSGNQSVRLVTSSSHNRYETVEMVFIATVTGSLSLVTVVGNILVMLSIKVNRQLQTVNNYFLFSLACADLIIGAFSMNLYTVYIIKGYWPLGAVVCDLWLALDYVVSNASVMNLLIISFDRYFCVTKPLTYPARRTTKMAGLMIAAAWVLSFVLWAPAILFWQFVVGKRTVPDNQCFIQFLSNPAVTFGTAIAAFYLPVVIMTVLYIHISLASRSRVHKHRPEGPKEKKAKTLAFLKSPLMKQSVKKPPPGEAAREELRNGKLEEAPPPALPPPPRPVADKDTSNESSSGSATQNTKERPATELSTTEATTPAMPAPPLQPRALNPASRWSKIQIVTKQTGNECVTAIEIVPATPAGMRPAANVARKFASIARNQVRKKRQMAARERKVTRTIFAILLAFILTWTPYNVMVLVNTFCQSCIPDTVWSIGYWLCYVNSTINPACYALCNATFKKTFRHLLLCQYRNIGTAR
Nature of the assay: Functional mobilization of intracellular calcium (FLIPR), M4-CHO cells. The settings on record: for Emax: 100% efficacy is the maximum response obtained with the Carbachol control; for M4 Activity: CHO cells expressing M4, calcium mobilization. On the procedure: (§1) Functional Mobilization of Intracellular Calcium to Determine Muscarinic Receptor Activity:
(§2) CHO cells expressing muscarinic receptors (M1 to M5) are grown as monolayers in tissue culture flasks at 37° C. in a humidified atmosphere containing 5% CO2 and passaged every 3-5 days. The growth media is Dulbecco's modified eagles medium (DMEM, Gibco Cat# 12430-054), containing 25 mM Hepes and supplemented with Fetal Bovine Serum (Hyclone, cat# SH30071.03), 0.1 mM of MEM non-essential amino acids (GIBCO, Cat# 11140-050), 1 mM MEM Sodium Pyruvate (GIBCO Cat# 11360-070) and 100 units/ml of Penicillin G and 100 μg/ml of Streptomycin (GIBCO Cat# 15140-122). The recombinant muscarinic receptor cell lines are grown under antibiotic pressure with media containing 25 μg/ml zeocin and 500 μg/ml G418 (M1-CHO), 4 μg/ml puromycin, 50 μg/ml zeocin and 2.5 μg/ml blasticidin (M2 and M4-CHO) or 50 μg/ml zeocin and 4 μg/ml puromycin (M3 and M5-CHO).
(§3) Cells are harvested at 80-90% confluence using Versene (GIBCO Cat# 15040-066), collected by centrifugation and seeded 18-24 hours prior to running the calcium assay at a density of 5,000-10,000 cells/well in […], clear-bottomed 384-well plates (BD Biocoat, poly-D-lysine, Cat#356663). The day of the experiment, the cells are washed with a plate washer (Bioteck Instruments, ELX 405) using Bath 1 buffer (140-mM NaCl, 4.5-mM KCl, 2-mM CaCl2, 1-mM MgCl2, 10-mM Hepes-Na, 10-mM Glucose, pH 7.4, with NaOH) containing 1 mM Probenecid. Next, the calcium dye Fluo-3 (25 μl/well of Fluo-3 AM at 4 μM, Molecular Probes F-1241, in Bath 1 buffer containing 1 mM Probenecid) is added to the 25 μl of Bath 1 remaining in each well after the plate wash and the dye is loaded at 37° C. in the tissue culture incubator for 60-90 min. The fluorescent dye is removed using the plate washer with Bath 1 containing 1 mM Probenecid, leaving 25 μl/well of this solution after the wash. Alternatively, cells can be loaded with the calcium indicator from Molecular Devices (Calcium 3 Assay Reagents, Cat # R7181) adding 5 μl of a 5× solution dye in Bath 1 containing 1 mM Probenecid (10 ml per dye flask cat# R7182 to generate a solution 20×) to 20 μl of the same buffer. After loading for 60 min, the experiment can be run without having to remove the dye.
(§4) Compounds are prepared at a 2× fold concentration in a 96-well plate (round bottom, Costar Corning cat# 3656), by reconstituting the pre-spotted compounds in bath 1 containing 1 mM probenecid. The final concentration DMSO is 0.5%, and the amount of DMSO is normalized across the assay plate. To determine an agonist action of the compounds on muscarinic receptors, the reconstituted compounds are added (25 μl compound/well) to the cell assay plate (containing 25 μl/well) using the multi-channel robotic system of the FLIPR 3 Instrument (Molecular Devices, Sunnyvale, Calif.). To determine a functional inhibitory action of the compounds on muscarinic receptors, the reconstituted compounds are added (25 μl compound/well) to the assay plate and pre-incubated for 15 min prior to adding 25 μl of Carbachol at 3× the EC80 for each muscarinic subtype. Alternatively, the compounds can be co-applied simultaneously with the agonist. In both assay modes, the fluorescence is recorded for 60 sec (excitation wavelength is […] and emission wavelength 540 nm) using the FLIPR 3 instrument.
(§5) The potency, efficacy and selectivity of the muscarinic compounds were evaluated by screening the compound activity across the whole family (M1 to M5 cells). Compounds were also screened for activity on other proteins such as other GPCRs and ion channels to determine selectivity on M4 receptors.
(§6) Examples of activities and efficacies of the muscarinic compounds of formulae (I, Ia, Ib, Ic, and Id) on modulating M1 and M4 receptors are shown below in Table 3. […]
A general note: A change in cytosolic calcium serves as a functional read-out for many receptors and channels.

For another assay, the target named is T2, M3 muscarinic receptor (Homo sapiens, UniProt P20309).
T2 construct: expressed in transfected cells; host or cells: CHO (M3-CHO)
Nature of the assay: Functional mobilization of intracellular calcium (FLIPR), M3-CHO cells. The note with it: for Emax: 100% efficacy is the maximum response obtained with the Carbachol control; for M3 Activity: CHO cells expressing M3, calcium mobilization. Here is the method:
as §1, §2, §3, §4, §5, §6

The target in a further assay is T3, M1 muscarinic receptor (Homo sapiens, UniProt P11229).
T3 construct: expressed in transfected cells; host or cells: CHO (M1-CHO)
T3 sequence (P11229 1-460): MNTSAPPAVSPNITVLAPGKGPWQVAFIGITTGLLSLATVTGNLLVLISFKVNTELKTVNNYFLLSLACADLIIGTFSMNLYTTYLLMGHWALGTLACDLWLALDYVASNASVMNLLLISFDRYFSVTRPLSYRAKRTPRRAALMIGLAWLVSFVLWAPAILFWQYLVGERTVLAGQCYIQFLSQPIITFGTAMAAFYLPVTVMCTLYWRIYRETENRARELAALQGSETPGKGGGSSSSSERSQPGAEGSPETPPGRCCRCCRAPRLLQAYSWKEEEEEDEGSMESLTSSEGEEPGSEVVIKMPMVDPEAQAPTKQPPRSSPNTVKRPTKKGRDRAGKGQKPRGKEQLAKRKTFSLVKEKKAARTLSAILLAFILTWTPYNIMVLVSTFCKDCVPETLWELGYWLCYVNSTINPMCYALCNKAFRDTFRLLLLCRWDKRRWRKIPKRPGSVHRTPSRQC
Nature of the assay: Functional mobilization of intracellular calcium (FLIPR), M1-CHO cells. The settings on record: for Emax: 100% efficacy is the maximum response obtained with the Carbachol control; for M1 Activity: CHO cells expressing M1, calcium mobilization. On the procedure:
as §1, §2, §3, §4, §5, §6

In another assay the target is T4, M2 muscarinic receptor (Homo sapiens, UniProt P08172).
T4 construct: expressed in transfected cells; host or cells: CHO (M2-CHO)
T4 sequence (P08172 1-466): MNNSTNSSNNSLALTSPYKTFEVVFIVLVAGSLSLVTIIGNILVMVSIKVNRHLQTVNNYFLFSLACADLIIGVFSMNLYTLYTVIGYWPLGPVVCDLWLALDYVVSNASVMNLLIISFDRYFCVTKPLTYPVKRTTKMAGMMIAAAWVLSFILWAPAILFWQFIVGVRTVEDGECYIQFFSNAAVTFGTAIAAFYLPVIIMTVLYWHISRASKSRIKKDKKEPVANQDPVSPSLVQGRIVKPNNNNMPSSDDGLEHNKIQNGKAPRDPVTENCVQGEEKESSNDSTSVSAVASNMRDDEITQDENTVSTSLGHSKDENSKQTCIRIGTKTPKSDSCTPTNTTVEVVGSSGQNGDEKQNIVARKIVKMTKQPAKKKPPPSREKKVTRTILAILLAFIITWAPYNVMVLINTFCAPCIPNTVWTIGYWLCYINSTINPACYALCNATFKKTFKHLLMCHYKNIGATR
Nature of the assay: Functional mobilization of intracellular calcium (FLIPR), M2-CHO cells. The settings on record: for Emax: 100% efficacy is the maximum response obtained with the Carbachol control; for M2 Activity: CHO cells expressing M2, calcium mobilization. On the procedure:
as §1, §2, §3, §4, §5, §6

T2 sequence (P20309 whole entry): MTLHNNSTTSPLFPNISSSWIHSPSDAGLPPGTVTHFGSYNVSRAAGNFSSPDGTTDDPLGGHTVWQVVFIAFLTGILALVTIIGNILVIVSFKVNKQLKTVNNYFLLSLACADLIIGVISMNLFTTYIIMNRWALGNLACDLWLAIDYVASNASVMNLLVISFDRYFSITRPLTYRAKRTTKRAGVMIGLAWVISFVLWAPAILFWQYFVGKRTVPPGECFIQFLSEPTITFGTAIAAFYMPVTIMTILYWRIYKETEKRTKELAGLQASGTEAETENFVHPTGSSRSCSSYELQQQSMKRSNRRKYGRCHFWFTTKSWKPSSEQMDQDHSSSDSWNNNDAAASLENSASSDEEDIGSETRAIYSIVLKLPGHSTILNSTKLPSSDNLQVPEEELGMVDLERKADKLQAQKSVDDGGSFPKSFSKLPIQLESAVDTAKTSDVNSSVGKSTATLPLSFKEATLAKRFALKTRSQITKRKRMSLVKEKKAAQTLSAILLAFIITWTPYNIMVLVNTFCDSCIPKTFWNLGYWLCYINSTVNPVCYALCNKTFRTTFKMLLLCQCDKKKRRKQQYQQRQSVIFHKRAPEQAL

For the molecule `CN1C(=O)OC2(CCN(C3CCCCCC3)CC2)c2ccccc21` [Compound 65, 1′-cycloheptyl-1-methylspiro[benzo[d][1,3]oxazine-4,4′-piperidin]-2(1H)-one], at M4 muscarinic receptor, the Emax is 25 to 100% and the “M4 Activity” value is recorded as “+++ (activity was measured to be less than 2.0 μM)”. Moreover, at M3 muscarinic receptor, the Emax was less than 25% and the “M3 Activity” value is “+ (activity was measured to be greater than 5.0 μM)”. On M1 muscarinic receptor, the Emax was less than 25% and the “M1 Activity” value is on record as “+ (activity was measured to be greater than 5.0 μM)”. Moreover, at M2 muscarinic receptor, the Emax was less than 25% and the “M2 Activity” value was “+ (activity was measured to be greater than 5.0 μM)”.

For `CCC(C)(C)C1CCC(N2CCC3(CC2)OC(=O)Nc2ccccc23)CC1` (stereo not drawn) [Compound 35], on M4 muscarinic receptor, the Emax is less than 25% and the “M4 Activity” value was “+ (activity was measured to be greater than 5.0 μM)”. At M3 muscarinic receptor, the Emax was less than 25% and the “M3 Activity” value was “+ (activity was measured to be greater than 5.0 μM)”. Further, at M1 muscarinic receptor, the Emax lay in the range of 25 to 100% and the “M1 Activity” value is reported as “+++ (activity was measured to be less than 2.0 μM)”. In addition, at M2 muscarinic receptor, the Emax was less than 25% and the “M2 Activity” value is given as “+ (activity was measured to be greater than 5.0 μM)”.

Take `O=C1Nc2ccccc2C2(CCN(C3CCNCC3)CC2)O1` [Compound 49, 1′-(piperidin-4-yl)spiro[benzo[d][1,3]oxazine-4,4′-piperidin]-2(1H)-one]: at M4 muscarinic receptor, the Emax was less than 25% and the “M4 Activity” value is “+ (activity was measured to be greater than 5.0 μM)”. Also, on M3 muscarinic receptor, the Emax is less than 25% and the “M3 Activity” value is recorded as “+ (activity was measured to be greater than 5.0 μM)”. Also, at M1 muscarinic receptor, the Emax is 25 to 100% and the “M1 Activity” value is given as “+ (activity was measured to be greater than 5.0 μM)”. Moreover, at M2 muscarinic receptor, the Emax was less than 25% and the “M2 Activity” value is on record as “+ (activity was measured to be greater than 5.0 μM)”.

Regarding `O=C1Nc2ccccc2C2(CCN(CC3CCCCC3)CC2)O1` [Compound 27], on M4 muscarinic receptor, the Emax fell in the range of 25 to 100% and the “M4 Activity” value is “+++ (activity was measured to be less than 2.0 μM)”. On M3 muscarinic receptor, the Emax was less than 25% and the “M3 Activity” value was “+ (activity was measured to be greater than 5.0 μM)”. Also, at M1 muscarinic receptor, the Emax was 25 to 100% and the “M1 Activity” value is recorded as “+++ (activity was measured to be less than 2.0 μM)”. Moreover, on M2 muscarinic receptor, the Emax lay within 25 to 100% and the “M2 Activity” value is recorded as “++ (activity was measured to be from 2.0 μM to 5.0 μM)”.

As for `CCON=C1CCC(N2CCC3(CC2)OC(=O)Nc2ccccc23)CC1` (stereo not drawn) [Compound 3, 1′-(4-(ethoxyimino)cyclohexyl)spiro[benzo[d][1,3]oxazine-4,4′-piperidin]-2(1H)-one], on M4 muscarinic receptor, the Emax was in the range of 25 to 100% and the “M4 Activity” value is “+++ (activity was measured to be less than 2.0 μM)”. Further, at M3 muscarinic receptor, the Emax lay in the range of 25 to 100% and the “M3 Activity” value is on record as “+++ (activity was measured to be less than 2.0 μM)”. Also, on M1 muscarinic receptor, the Emax was in the range of 25 to 100% and the “M1 Activity” value was “+++ (activity was measured to be less than 2.0 μM)”. In addition, on M2 muscarinic receptor, the Emax was 25 to 100% and the “M2 Activity” value is “+++ (activity was measured to be less than 2.0 μM)”.

For `O=C1CCC(N2CCC3(CC2)OC(=O)Nc2ccccc23)CC1` [Compound 64, 1′-(4-oxocyclohexyl)spiro[benzo[d][1,3]oxazine-4,4′-piperidin]-2(1H)-one], on M4 muscarinic receptor, the maximum response (Emax) lay in the range of 25 to 100% and the “M4 Activity” value is listed as “++ (activity was measured to be from 2.0 μM to 5.0 μM)”. Besides, at M3 muscarinic receptor, the Emax was less than 25% and the “M3 Activity” value is “+ (activity was measured to be greater than 5.0 μM)”. Moreover, on M1 muscarinic receptor, the Emax fell in the range of 25 to 100% and the “M1 Activity” value is listed as “++ (activity was measured to be from 2.0 μM to 5.0 μM)”. Also, at M2 muscarinic receptor, the Emax was 25 to 100% and the “M2 Activity” value is on record as “+ (activity was measured to be greater than 5.0 μM)”.

By Emax is commonly meant the greatest response seen or fitted, relative to the assay's reference.

For the origin of these results see patent US7696201B2, “Modulators of muscarinic receptors” (Vertex Pharmaceuticals Incorporated, priority 2006, dated 2010).
